Test [1] relates to Apis mellifera Carniolan foraging worker honeybees. As to the kind of experiment: Proboscis extension response (PER) assay in bees conditioned to 2-heptanone. In kind it is in vivo. The following applies: final compound concentration 0.5% (TRITON X-100/water), 4 s exposure; only bees PER-positive to 2-heptanone and negative to controls counted. The protocol: To determine whether a living honeybee can recognize a candidate compound, these compounds were tested using a proboscis extension response (PER) assay using classical conditioning approaches. Proboscis extension response conditioning is a case of appetitive learning, in which bees learn to associate odor stimuli with sucrose reward in the laboratory. In this case, bees were conditioned to produce a PER to 2-heptanone as the conditioned stimulus and a sugar reward as the unconditioned stimulus. These trained bees were then exposed to an odor pulse of a candidate compound to test whether a candidate compound would also produce a PER. If the candidate compound “mimics” 2-heptanone then the honeybee will extend its proboscis.
For conditioning procedures, Apis mellifera Carniolan foraging worker honeybees were obtained from a local apiary (typically 60 bees per shipment). The honeybees were held overnight in insect cages with food and water freely available, in an environmentally controlled room on a light cycle similar to the ambient cycle at the time of the assay.
For conditioning procedures, all tests were done in an odorant delivery apparatus set inside a fume hood. The apparatus comprised a set of open-ended, horizontal, 3 cm diameter by 10 cm long plastic tubes. Each tube was designed where a honeybee could be positioned at the distal end of a tube, with the opening at the other end of the tube located proximal to an inlet of the fume hood. To deliver an odorant, room air was pumped by a diaphragm pump through a particle filter via 0.25 inch plastic tubing at approximately 0.7 m/sec. The air flow passes into the headspace above an odorant (0.5% [v/v]2-heptanone dissolved in odorless light paraffin oil) contained in a 100 mL bottle. The headspace air then passes through another plastic tube to a manifold of 4-way valves, each of which was attached near the proximal end of a plastic tube containing a bee. Each bee was exposed separately for a desired time period to the odorant by opening and closing the appropriate valve. When each valve was closed, the odor was flushed away immediately by the continuous fume hood air stream.
To train a honeybee to respond to a conditioned and unconditioned stimuli, bees were placed, without anesthesia, in individual 1.5 mL micro-centrifuge holding tubes and held overnight without access to food or water. The holding tubes containing the starved bees were placed in racks in groups of eight. One rack at a time was placed behind the odorant delivery apparatus so that each bee's head is centered at the distal end of a horizontal plastic tube. Each bee was exposed to the 2-heptanone odorant alone for four seconds, and then while being fed an 80% sucrose solution for and additional three seconds. The sucrose solution was delivered on a piece of saturated filter paper held in forceps. […] Positive and negative responses were recorded. A positive PER was scored when a bee extended its proboscis before the sucrose appeared. In a typical trial, 48 individual bees were subjected to conditioning. Six rounds of training were done before testing began, and typically a majority of the bees were successfully conditioned by the second or third round of training.
After conditioning, honeybees were tested with the candidate compounds the same day or on the following day or, most commonly, both. When held overnight, bees were fed with sucrose and kept in their holding tubes. When tested the day after training, bees were given one or more rounds of conditioning with 2-heptatone to refresh their memories. Candidate compounds stocks were made at 5% (w/v) in polyoxyethylene octyl phenyl ether (TRITON® X-100), a non-ionic detergent/surfactant, and stored at 4° C. This detergent is similar to substances used as carriers for a variety of commercial pest-control agents, can act as a solvent for both hydrophilic and hydrophobic substances, and is itself nearly odorless. […]

For test [2] the test system is unchanged. Nature of the test: Choice test in free-flight box apparatus. In kind it is in vivo. The following applies: for Repellence Score: percent food-weight change vs corresponding dishes in preceding test. On the procedure: To determine whether living honeybees will choice to move towards a source of a candidate compound, these compounds were assayed using a choice test in a free-flight box apparatus.
All tests were done in a free-flight box apparatus. The apparatus comprises a 244 cm long×46 cm deep×30 cm high clear plastic box including two equally-sized independent testing chambers, each with 10 cm diameter air inlets that admit filtered room air, separated by a smaller central chamber with a screened air outlet to each testing chamber. Air can be pulled through the sealed box via a 10 cm diameter duct from the air outlet using an AQE Fume Fighter 500 fume extractor (BPA Air Quality Solutions, LLC, Charleston, S.C.), which removes the test odors using activated charcoal and HEPA filters. The box is housed in an environmentally controlled room with overhead illumination timed to correspond to the current ambient light cycle including 2 additional sets of lights timed to approximate crepuscular lighting conditions. The bottom of the apparatus was lined with clean absorbent paper marked with a 4×9 grid pattern, forming 12 cm×12 cm squares with marked coordinates.
Apis mellifera Carniolan foraging worker honeybees were obtained from a local apiary (typically 60 bees per shipment). Thirty honeybees were put into each testing chamber and were allowed to acclimate for 24 hours with food and water freely available.
At the beginning of each test day all food was removed from the test chamber, but water was continually available throughout all tests. For each test, approximately 0.3 g of organic, raw orange blossom honey was added to each clean small plastic weigh boat (Cole-Palmer). The honey boats were placed in small plastic culture dishes, which were distributed in the marked squares in the chambers. The positions of the dishes on the grid for a set of trials was chosen to avoid the bees' preferred resting area so that they had to find the food actively, but the same dish positions were maintained for a given set of trials. […] The honey in each boat was weighed on an analytical balance before and after the test, with the screened sample as a control for evaporative loss. The fume extractor was left off during the experimental trails, and was turned on to clear the air after the test dishes were covered and removed from the chamber at the end of each trial.
Based on the observation that bees tend to return to dishes in the same position where they have fed before, each set of trials with each group of bees began with “Pattern Identification” tests to see which dishes lose the most weight, reflecting the most feeding. Once bees were consuming an acceptable amount in 10-15 min, typically in 1-2 trials, we began a set of test compound trials. The test compound was pipetted onto pieces of filter paper placed on the dish bottom below the boat containing a fresh, weighed honey sample so that the test compound was inaccessible to the bees. We used 2 μL of a candidate compound at a concentration of 0.05-0.5%, in Triton X-100 or paraffin oil, on each of four pieces of filter paper per dish. The test-solution dishes were set at the same positions as the one or two dishes favored in the preceding Pattern Identification trial. To eliminate interference from the solvent, the other dishes without the test substance contained the same volume of the appropriate solvent on filter papers as the test solution dishes. The bees were allowed to feed for 10-15 minutes. Bee movements were recorded by a small, wide-angle digital video camcorder (HD Hero 960; GoPro, Halfmoon Bay, Calif.) placed on a tripod in front of the test chamber. The bees were given a brief rest while the honey was weighed and a second test was begun with fresh dishes, except that the test compound-containing dish or dishes were placed at whichever positions were most visited in the preceding test. […] The bees were then rested for 1-3 hours and a subsequent set of trials begun with another Pattern Identification. […]

The test system of another test is OBP2. As to the kind of experiment: Fluorescent-quench ligand-protein-binding assay (OBP2 binding screen). Set-up: species or system Apis mellifera; key: Low, indicates no detectable binding to OBP2.; Moderate, indicates that 50% or less of the compound bound to OBP2.; Strong, indicates that 51% or more of the compound bound to OBP2. The text has this:
To identify a honeybee repellent disclosed herein, candidate compounds were screened based upon the fact that 2-heptanone is an established repellent of bees. 2-heptanone is thought to mediate its behavioral response through binding to a specific odorant-binding protein called OBP2. Therefore compounds that bind OBP2 have the potential to act as odor “mimics” of 2-heptanone. By utilizing a fluorescent-quench, ligand-protein-binding assay, 30,000 compounds from the DIVERSET® library (ChemBridge Corp., San Diego, Calif.), a chemical library, were screened and over 150 candidate compounds were isolated that bind OBP2 (Table 1). Such assays are generally known in the art. See, e.g., Briand, et al., Ligand-Binding Properties and Structural Characterization of a Novel Rat Odorant-Binding Protein Variant, Eur. J. Biochem. 267(10): 3079-3089 (2000); Briand, et al., Ligand Binding and Physico-Chemical Properties of ASP2, A Recombinant Odorant-Binding Protein From Honeybee (Apis mellifera L.), Eur. J. Biochem. 268(3): 752-760 (2001); Briand, et al., Characterization of a Chemosensory Protein (ASP3c) from Honeybee (Apis mellifera L.) as a Brood Pheromone Carrier, Eur. J. Biochem. 269(18): 4586-4596 (2002), each of which is hereby incorporated by reference in its entirety.

Where [3] appears, read: amount 0.5%, negative = increase in food consumption.

These results are taken from patent US10098352B2, “Honeybee repellents and uses thereof” (Inscent, Inc., priority 2011, dated 2018).

Consider `Cc1cc(C)c2c(N)c(C(=O)c3ccc(Cl)cc3)sc2n1` [compound 8, (3-amino-4,6-dimethylthieno[2,3-b]pyridin-2-yl)(4-chlorophenyl)methanone], for which the “2-heptanone positive bees testing positive to compound” value in test [1] was 14.4%. The “Repellence Score” value in test [2] (setting [3]) is −10.7%. In addition, the “Repellent or attractant effect in choice test (in words)” value in test [2] (reduction of feeding at dishes most visited in preceding test) is recorded as “slightly attractive”. For the same compound, the “OBP2 binding characteristic of compound” value in the test on OBP2 is “Moderate (Moderate, indicates that 50% or less of the compound bound to OBP2.)”.
Regarding `c1ccc(CCN(Cc2ccccc2)Cc2cccnc2)cc1` [compound 39], the “2-heptanone positive bees testing positive to compound” value in test [1] is 1.9%. Further, the “OBP2 binding characteristic of compound” value with OBP2 is “Moderate (Moderate, indicates that 50% or less of the compound bound to OBP2.)”.
As to `CC(C)Nc1c(Cl)c(Cl)c(Cl)c2c1C(=O)c1ccccc1C2=O` [compound 22], the “2-heptanone positive bees testing positive to compound” value in test [1] was found to be 4.4%. Further, in the test on OBP2, the “OBP2 binding characteristic of compound” value is given as “Strong (Strong, indicates that 51% or more of the compound bound to OBP2.)”.
On to `O=C(COC(=O)c1ccccc1)c1cccc(Br)c1` [compound 54], for which the “2-heptanone positive bees testing positive to compound” value in test [1] was found to be 9.1%. Besides, in the test with OBP2, the “OBP2 binding characteristic of compound” value was “Moderate (Moderate, indicates that 50% or less of the compound bound to OBP2.)”.
For `COC(=O)C=C(C)NC(=O)c1ccc(F)cc1` [compound 59], in test [1], the “2-heptanone positive bees testing positive to compound” value is on record as 16.7%. In the test with OBP2, the “OBP2 binding characteristic of compound” value is reported as “Moderate (Moderate, indicates that 50% or less of the compound bound to OBP2.)”.
Consider `CC(C)(C)C1=CC(=NNC(N)=S)C=C(C(C)(C)C)C1=O` [compound 42], for which, in test [1], the “2-heptanone positive bees testing positive to compound” value is given as 2.6%. In addition, the “OBP2 binding characteristic of compound” value with OBP2 is on record as “Moderate (Moderate, indicates that 50% or less of the compound bound to OBP2.)”.
For `O=C(C=Cc1ccccc1)OCC1CCCN(Cc2cccc([N+](=O)[O-])c2)C1` (stereo not drawn) [compound 23], the “2-heptanone positive bees testing positive to compound” value in test [1] was 3.3%. Besides, the “OBP2 binding characteristic of compound” value in the test on OBP2 is “Strong (Strong, indicates that 51% or more of the compound bound to OBP2.)”.
Take `COc1cc(C=NO)ccc1Oc1ccc([N+](=O)[O-])cc1` [compound 3, 3-methoxy-4-(4-nitrophenoxy)benzaldehyde oxime]: the “2-heptanone positive bees testing positive to compound” value in test [1] came to 14.5%. For the same compound, in test [2] (setting [3]), the “Repellence Score” value turned out to be 49.8%.
As to `CCn1c2ccccc2c2cc(C=Nc3ccc(C(N)=O)cc3)ccc21` [compound 56], the “2-heptanone positive bees testing positive to compound” value in test [1] was 18.2%. The “OBP2 binding characteristic of compound” value in the test on OBP2 is given as “Moderate (Moderate, indicates that 50% or less of the compound bound to OBP2.)”.
As to `O=[N+]([O-])c1cc2c(cc1CN1CCN(c3ccccc3)CC1)OCO2` [compound 26], the “2-heptanone positive bees testing positive to compound” value in test [1] is recorded as 14.8%. For the same compound, the “Effectiveness at 10-fold lower concentration” value in test [2] (0.05% compared with 0.5%) was “significantly more effective”. Besides, the figures for the “Repellence Score” value in test [2] (amount 0.05%) and in test [2] (setting [3]) were 60.0% and 58.6%, respectively.
Turning to `CCOC(=O)c1cc(-c2cccc(N)c2)nc2ccccc12` [compound 21], in test [1], the “2-heptanone positive bees testing positive to compound” value turned out to be 4.4%. Moreover, the “OBP2 binding characteristic of compound” value with OBP2 is “Strong (Strong, indicates that 51% or more of the compound bound to OBP2.)”.
In the same order, the values of `COc1ccc(CN2CCN(c3cccc(C)c3C)CC2)c(C)c1C` [compound 29] are 0.0% and “Low*”.
Consider `COc1cccc(C(=O)Oc2ccc3c(c2)C(C)=CC(C)(C)N3)c1` [compound 37], for which, in test [1], the “2-heptanone positive bees testing positive to compound” value is 14.4%. Further, in the test on OBP2, the “OBP2 binding characteristic of compound” value was “Moderate (Moderate, indicates that 50% or less of the compound bound to OBP2.)”.
For `COC(=O)C1=C(C(=O)OC)SC(=C2C(=S)C(C)(C)Nc3cc(C)ccc32)S1` [compound 19], in test [1], the “2-heptanone positive bees testing positive to compound” value stood at 2.8%. Also, the “OBP2 binding characteristic of compound” value in the test with OBP2 is “Strong (Strong, indicates that 51% or more of the compound bound to OBP2.)”.
Turning to `COc1ccc(C(=O)C=Cc2cn(C)c3ccccc23)cc1` [compound 50, 1-(4-methoxyphenyl)-3-(1-methyl-1H-indol-3-yl)-2-propen-1-one], in test [1], the “2-heptanone positive bees testing positive to compound” value turned out to be 22.2%. Also, in test [2] (setting [3]), the “Repellence Score” value was 55.7%.
Take `COc1ccc2oc(C)c(C(=O)c3ccc(Br)cc3)c2c1` [compound 17]: in test [1], the “2-heptanone positive bees testing positive to compound” value came out at 6.2%. For the same compound, the “OBP2 binding characteristic of compound” value in the test with OBP2 is recorded as “Strong (Strong, indicates that 51% or more of the compound bound to OBP2.)”.
